Consider twelve compounds from US7410975B2, “Small molecule toll-like receptor (TLR) antagonists” (Coley Pharmaceutical Group, Inc., priority 2003, dated 2008).

Read-outs that look alike come from different tables or passages of the source.

The conditions of series [1]: read-out: IC50 by Macfarlane's assay; cited from earlier work.
Series [2] in a line: Macfarlane's assay of chloroquines (IC50). Conditions: from the Macfarlane IC50 values. The text has this: It turns out that chloroquine, hydroxychloroquine, mono de-ethylchloroquine, and bis de-ethylchloroquine have been examined by Macfarlane.
The conditions of series [3]: cited from earlier work.
The next series relates to Plasmodium falciparum. Conditions: treatment of malaria; Aderounmu 1984; cited from earlier work.
Series [4] has as its system CpG ODN-generated IL-6 production by human PBMC. Kind of series: Blockade of CpG ODN-generated IL-6 production by human PBMC, ELISA (Example 8, Table 19). It counts as cell-based. Conditions: CpG-ODN 2006, 16 h. The text has this: Alternatively, TLR9 ligand antagonism in human peripheral blood mononuclear cells (PBMC) was monitored. Peripheral blood buffy coat preparations from healthy male and female human donors were obtained from the Blood Bank of the University of Düsseldorf (Germany) and from these, PBMC were purified by centrifugation over Ficoll-Hypaque (Sigma). The purified PBMC were resuspended in RPMI 1640 culture medium supplemented with 5% (v/v) heat-inactivated human AB serum (Bio Whittaker, Belgium) or 10% (v/v) heat-inactivated fetal calf serum (FCS), 1.5 mM L-glutamine, 100 U/ml penicillin and 100 μg/ml streptomycin (all from Sigma). Fresh PBMC at a concentration of 3×10^6/ml to 5×10^6/ml were added to 96-well round-bottomed plates (150 μl/well). After cell plating, antagonist was added at varying concentrations starting at 50 μM with a 1/5 to 1/6 dilution for 7 steps. The cells were then stimulated with the TLR9 agonist, CpG-ODN 2006, and cultured for 16 h in a humidified incubator at 37° C. Culture supernatants were collected and, if not used immediately, frozen at −20° C. until required. Interleukin 6 (IL-6) in the supernatants was quantitatively assessed using commercially available ELISA Kits (IL6, Diaclone, USA). Sigmoidal antagonism curves were generated and IC50 calculated. Results shown in Table 19 under the heading IL-6 are the IC50 dose (μM) for blockade of CpG ODN-generated IL-6 production by human PBMC.

A further series deals with T1, hTLR9 (Homo sapiens, UniProt Q9NR96).
T1 construct: expressed in transfected cells
T1 sequence (Q9NR96 26-1032): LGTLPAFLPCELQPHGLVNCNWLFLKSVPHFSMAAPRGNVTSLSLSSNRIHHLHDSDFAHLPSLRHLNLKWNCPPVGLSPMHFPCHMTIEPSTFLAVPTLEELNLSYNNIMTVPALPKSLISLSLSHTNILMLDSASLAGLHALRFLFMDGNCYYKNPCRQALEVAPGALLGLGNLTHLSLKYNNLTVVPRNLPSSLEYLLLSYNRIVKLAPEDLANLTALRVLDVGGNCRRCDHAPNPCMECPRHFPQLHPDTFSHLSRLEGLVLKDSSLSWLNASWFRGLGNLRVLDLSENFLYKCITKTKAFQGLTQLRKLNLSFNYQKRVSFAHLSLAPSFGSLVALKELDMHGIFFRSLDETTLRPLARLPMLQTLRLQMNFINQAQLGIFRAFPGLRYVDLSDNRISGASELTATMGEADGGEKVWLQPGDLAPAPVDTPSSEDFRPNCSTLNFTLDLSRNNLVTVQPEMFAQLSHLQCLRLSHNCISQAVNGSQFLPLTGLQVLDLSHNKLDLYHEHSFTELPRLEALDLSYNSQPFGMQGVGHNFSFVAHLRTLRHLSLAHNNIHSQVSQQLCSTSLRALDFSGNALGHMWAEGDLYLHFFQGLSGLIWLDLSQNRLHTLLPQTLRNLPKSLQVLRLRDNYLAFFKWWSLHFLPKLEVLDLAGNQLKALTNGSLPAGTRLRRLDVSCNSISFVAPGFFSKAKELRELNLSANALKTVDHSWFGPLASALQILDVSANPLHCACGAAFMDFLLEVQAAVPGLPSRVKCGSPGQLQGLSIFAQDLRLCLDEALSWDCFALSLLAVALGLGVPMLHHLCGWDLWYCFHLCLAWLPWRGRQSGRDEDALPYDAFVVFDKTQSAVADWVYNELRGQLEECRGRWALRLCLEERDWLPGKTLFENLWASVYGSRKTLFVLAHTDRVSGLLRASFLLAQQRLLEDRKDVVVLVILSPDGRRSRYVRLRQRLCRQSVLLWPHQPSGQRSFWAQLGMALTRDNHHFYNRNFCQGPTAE
As to the kind of experiment: hTLR9 antagonism IC50, hTLR9-NFkB-293 cells, luciferase readout, CpG-ODN 2006 (Examples 8 and 18, Tables 19 and 20). Type of series: cell-based. Conditions: hTLR9-NFkB-293 cells, EC50 dose of CpG-ODN 2006, 16 h; Table 19 quinazolines; read-out: hTLR9 (IC50 dose for blockade of a CpG ODN-generated signal). As for the experimental part:
(§1) hTLR9-NFkB-293 cells were counted and seeded at 1.5×10^4 cells per well in 96-well cell culture plates one day before assaying and cultured at 37° C./5% CO2, as described in Example 7. The day of the assay, antagonist was added at varying concentrations starting at 50 μM with a 1/5 to 1/6 dilution for 7 steps. The cells were then stimulated with the EC50 dose of the TLR9 agonist, CpG-ODN 2006, and cultured for 16 h in a humidified incubator at 37° C. The culture supernatant was removed and the cells were treated with lysis buffer and stored at −80° C. before measuring luciferase activity as described in Example 7. […] Results shown in Table 19 under the heading hTLR9 are the IC50 dose (μM) for blockade of a CpG ODN-generated signal in hTLR9-NFkB-293 cells.
as §1, with “20” for “19”

Another series relates to WEHI 231 B-cells. Conditions: anti-surface IgM, U.S. Pat. No. 6,479,504, read-out: EC50, half-maximal inhibition of CpG-ODN effect on thymidine uptake; cited from earlier work.
Another series addresses T2, human TLR9 (hTLR9) (Homo sapiens, UniProt Q9NR96).
T2 construct: expressed in transfected cells
T2 sequence (Q9NR96 26-1032): T1 sequence (Q9NR96 26-1032)
Type of series: cell-based. Conditions: three-point assay at 50, 5.0 or 0.5 μM; EC50 dose of CpG-ODN 2006, 16 h. On the procedure: Stably co-transfecting the human TLR9 receptor (hTLR9) and an NF-κB promoter-driven luciferase gene into HEK-293 cells created the cell line hTLR9-NFkB-293. hTLR9-NFkB-293 cells were counted and seeded at 1.5×10^4 cells per well in 96-well cell culture plates one day before assaying and cultured at 37° C./5% CO2. The day of the assay, antagonist was added at 50 μM, 5.0 μM or 0.5 μM. The cells were then stimulated with the EC50 dose of the TLR9 agonist, CpG-ODN 2006, and cultured for 16 h in a humidified incubator at 37° C. The culture supernatant was removed and the cells were treated with lysis buffer and stored at −80° C. before measuring luciferase activity. The luciferase readout was measured according to manufacturer's instructions using a luciferase assay system available from Promega, USA. The antagonist dose listed in Table 18 is the minimum effective dose (μM) for blockade of the TLR9 agonist. As evident from the results presented in Table 18, the minimum effective dose (μM) for blockade of the TLR9 agonist was 0.5 μM or 5 μM for all of the compounds tested, as measured by this three-point assay.

Turning to `CCNCCCC(C)Nc1ccnc2cc(Cl)ccc12` (centres unmarked) [mono de-ethylchloroquine], the IC50 (in general, the concentration needed to halve the response being measured) in series [1] is 708 nM. The “reduction of potency relative to chloroquine” value in series [2] was “about 7 fold”. In series [3] (humans), the “half life relative to that of chloroquine” value is given as 1.5 times. The “half life in humans” value in series [3] (humans, de Vries 1994) is 27 days. Also, the “potency against Plasmodium falciparum” value in the series with Plasmodium falciparum is given as “about equal”.

On to `COc1cc2nc(N3CCN(C)CC3)nc(NCCN(C)C)c2cc1OC` [CMZ 203-76, N′-[6,7-Dimethoxy-2-(4-methyl-piperazin-1-yl)-quinazolin-4-yl]-N,N-dimethyl-ethane-1,2-diamine], for which the results for the IC50 (in series [4]; on hTLR9) were 221 nM and 3 nM, respectively.

Take `CCN(CC)CCCC(C)Nc1ccnc2cc(Cl)ccc12` (centres unmarked) [chloroquine]: the IC50 in series [1] was 110 nM. Further, the “half life in humans” value in series [3] (human, in vivo) is 18 days. Also, the “potency against Plasmodium falciparum” value in the series on Plasmodium falciparum is “about equal”.

In the case of `CN(C)CCNc1nc(-c2ccccc2)nc2ccccc12` [CMZ 203-44, N,N-Dimethyl-N′-(2-phenyl-quinazolin-4-yl)-ethane-1,2-diamine], the IC50 in series [4] amounted to 4000 nM; at hTLR9 it was 2400 nM.

Turning to `COc1cc2nc(N3CCN(c4ccccc4)CC3)nc(NCCN(C)C)c2cc1OC` [CMZ 203-78, N′-[6,7-Dimethoxy-2-(4-phenyl-piperazin-1-yl)-quinazolin-4-yl]-N,N-dimethyl-ethane-1,2-diamine], the results for the IC50 (in series [4]; on hTLR9) were 8 nM and 3 nM, respectively.

Regarding `CN(C)CCNC1NC(c2ccc(N3CCN(C)CC3)cc2)=Nc2ccccc21` (centres unmarked) [CMZ 203-34(201), N,N-dimethyl-N′-{2-[4-(4-methyl-piperazin-1-yl)-phenyl]-3,4-dihydro-quinazoline-4-yl}-ethane-1,2,-diamine], the IC50 in series [4] was 50 nM; on hTLR9 it was 3 nM.

With `CN(C)CCOc1nc(-c2ccc(N3CCN(C)CC3)cc2)nc2ccccc12` [CMZ 203-49(213), Dimethyl-(2-{2-[4-(4-methyl-piperazin-1-yl)-phenyl]-quinazolin-4-yloxy}-ethyl)-amine], the IC50 worked out at 600 nM in series [4] and 2400 nM on hTLR9.

Take `CCN(CCO)CCCC(C)Nc1ccnc2cc(Cl)ccc12` (centres unmarked) [hydroxychloroquine]: in series [1], the IC50 was 410 nM.

On to `CC(CCCN)Nc1ccnc2cc(Cl)ccc12` (centres unmarked) [bis de-ethylchloroquine], for which the IC50 in series [1] was 1860 nM. The “reduction of potency relative to chloroquine” value in series [2] is “about 18 fold”. The “potency against Plasmodium falciparum” value with Plasmodium falciparum is “about half as active”.

Turning to `CN(C)CCNc1nc(-c2ccc(-c3ccccc3)cc2)nc2ccccc12` [CMZ 203-51, N′-(2-Biphenyl-4-yl-quinazolin-4-yl)-N,N-dimethyl-ethane-1,2-diamine], the IC50 in series [4] amounted to 6600 nM; at hTLR9 it was 5200 nM.

For the compound `CCN(CC)CCCC(C)Nc1c2ccc(Cl)cc2nc2ccc(OC)cc12` (centres unmarked) [quinacrine], the EC50 – broadly, the concentration that produces a half-maximal response – with WEHI 231 B-cells was approximately 8 nM.

Consider `CCOc1ccc2nc3cc(NCc4ccco4)ccc3c(N)c2c1` [compound 1674, 7-Ethoxy-N*3*-furan-2-ylmethyl-acridine-3,9-diamine], for which the “antagonist dose (minimum effective dose for blockade of the TLR9 agonist)” value on human TLR9 (hTLR9) was 5.0 µM.
